Reference: patent US20010018452A1 (published 2001)

melting point | Structure (SMILES)
82 to 84 °C | CON=C(C(=O)OC)c1cc(C)c(C)cc1COc1ccccc1C
129 to 134 °C | CNC(=O)C(=NOC)c1cc(C)c(C)cc1C(ON)=C(C)c1cccc(C(F)(F)F)c1
